Laboratory results reported in ChEMBL document CHEMBL5291721, “A preclinical secondary pharmacology resource illuminates target-adverse drug reaction associations of marketed drugs” (Nat Commun, 2023).

Columns and labels:
[1] = molecular target: T1, Adenosine receptor A3 (Homo sapiens, UniProt P0DMS8)
T1 sequence (P0DMS8 whole entry): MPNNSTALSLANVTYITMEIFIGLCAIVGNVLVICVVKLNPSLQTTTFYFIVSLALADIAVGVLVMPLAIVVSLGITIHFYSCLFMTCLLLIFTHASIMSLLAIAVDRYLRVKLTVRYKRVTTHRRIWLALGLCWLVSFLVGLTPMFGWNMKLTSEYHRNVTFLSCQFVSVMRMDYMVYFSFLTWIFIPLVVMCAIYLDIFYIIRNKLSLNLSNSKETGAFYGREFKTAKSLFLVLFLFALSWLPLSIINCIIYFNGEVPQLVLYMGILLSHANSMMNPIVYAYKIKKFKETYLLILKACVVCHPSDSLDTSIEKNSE

[2] = molecular target: T2, Type-1 angiotensin II receptor (Homo sapiens, UniProt P30556)
T2 sequence (P30556 whole entry): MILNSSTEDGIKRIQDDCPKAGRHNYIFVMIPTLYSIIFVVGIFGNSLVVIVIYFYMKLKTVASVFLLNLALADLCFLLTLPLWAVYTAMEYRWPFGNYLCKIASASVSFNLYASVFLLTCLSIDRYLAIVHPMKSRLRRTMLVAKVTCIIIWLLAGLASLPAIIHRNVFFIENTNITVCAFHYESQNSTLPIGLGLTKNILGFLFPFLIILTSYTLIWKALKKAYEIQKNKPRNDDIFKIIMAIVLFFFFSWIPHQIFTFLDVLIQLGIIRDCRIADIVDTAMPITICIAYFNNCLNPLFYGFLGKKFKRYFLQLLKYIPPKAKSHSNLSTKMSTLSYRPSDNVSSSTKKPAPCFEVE

[3] = molecular target: Muscarinic acetylcholine receptor M3 (Homo sapiens, UniProt P20309)
Chain of Muscarinic acetylcholine receptor M3 (P20309 whole entry): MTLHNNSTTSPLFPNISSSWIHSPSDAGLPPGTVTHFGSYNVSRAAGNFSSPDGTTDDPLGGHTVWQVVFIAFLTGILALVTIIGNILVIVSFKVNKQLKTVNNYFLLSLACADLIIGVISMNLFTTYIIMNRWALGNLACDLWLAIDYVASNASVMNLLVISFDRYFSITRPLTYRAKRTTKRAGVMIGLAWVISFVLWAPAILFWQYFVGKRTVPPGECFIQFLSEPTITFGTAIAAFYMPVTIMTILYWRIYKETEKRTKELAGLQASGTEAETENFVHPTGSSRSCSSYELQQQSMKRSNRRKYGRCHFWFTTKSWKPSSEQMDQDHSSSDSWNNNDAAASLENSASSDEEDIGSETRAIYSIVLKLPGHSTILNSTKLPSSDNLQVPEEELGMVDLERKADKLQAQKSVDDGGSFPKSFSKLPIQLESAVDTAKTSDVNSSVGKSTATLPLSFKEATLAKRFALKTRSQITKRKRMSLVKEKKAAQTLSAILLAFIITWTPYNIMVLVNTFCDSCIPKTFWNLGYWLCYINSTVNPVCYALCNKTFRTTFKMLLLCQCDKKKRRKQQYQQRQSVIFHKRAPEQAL

[4] = molecular target: Growth hormone secretagogue receptor type 1 (Homo sapiens, UniProt Q92847)
Chain of Growth hormone secretagogue receptor type 1 (Q92847 whole entry): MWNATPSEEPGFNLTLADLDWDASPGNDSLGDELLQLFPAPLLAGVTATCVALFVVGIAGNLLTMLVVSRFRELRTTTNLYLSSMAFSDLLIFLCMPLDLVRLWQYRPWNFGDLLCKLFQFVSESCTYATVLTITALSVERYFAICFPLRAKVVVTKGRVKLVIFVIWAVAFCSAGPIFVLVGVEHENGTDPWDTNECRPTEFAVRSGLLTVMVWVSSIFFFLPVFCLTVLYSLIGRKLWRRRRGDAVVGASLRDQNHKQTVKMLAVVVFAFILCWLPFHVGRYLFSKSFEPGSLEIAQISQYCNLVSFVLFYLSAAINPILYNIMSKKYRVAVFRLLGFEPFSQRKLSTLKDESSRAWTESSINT

[5] = molecular target: Histamine H2 receptor (Homo sapiens, UniProt P25021); format: functional, cell-based
Chain of Histamine H2 receptor (P25021 whole entry): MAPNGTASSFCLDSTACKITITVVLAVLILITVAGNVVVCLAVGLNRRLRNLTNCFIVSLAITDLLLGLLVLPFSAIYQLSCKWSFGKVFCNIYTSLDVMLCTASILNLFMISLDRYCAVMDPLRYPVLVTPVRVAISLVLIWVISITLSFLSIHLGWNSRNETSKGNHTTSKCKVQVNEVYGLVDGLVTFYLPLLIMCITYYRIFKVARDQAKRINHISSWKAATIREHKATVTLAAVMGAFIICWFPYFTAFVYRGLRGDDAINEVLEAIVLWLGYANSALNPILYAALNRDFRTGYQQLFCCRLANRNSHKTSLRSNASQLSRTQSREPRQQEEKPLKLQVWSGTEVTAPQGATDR

[6] = molecular target: T3, 5-hydroxytryptamine receptor 3A (Homo sapiens, UniProt P46098); format: functional
T3 sequence (P46098 whole entry): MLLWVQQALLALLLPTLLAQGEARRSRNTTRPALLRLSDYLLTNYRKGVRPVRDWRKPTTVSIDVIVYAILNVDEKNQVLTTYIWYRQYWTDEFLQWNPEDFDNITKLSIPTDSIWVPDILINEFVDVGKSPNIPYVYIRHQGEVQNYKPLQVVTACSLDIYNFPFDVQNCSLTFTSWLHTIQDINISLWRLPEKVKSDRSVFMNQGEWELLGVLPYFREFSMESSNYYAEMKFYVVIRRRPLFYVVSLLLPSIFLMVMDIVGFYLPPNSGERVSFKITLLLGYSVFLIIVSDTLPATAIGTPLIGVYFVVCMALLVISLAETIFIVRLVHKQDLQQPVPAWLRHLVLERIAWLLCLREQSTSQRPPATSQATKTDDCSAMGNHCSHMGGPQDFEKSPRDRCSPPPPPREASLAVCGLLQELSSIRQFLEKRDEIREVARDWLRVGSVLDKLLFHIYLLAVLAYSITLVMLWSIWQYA

[7] = molecular target: T4, Progesterone receptor (Homo sapiens, UniProt P06401); format: functional
T4 sequence (P06401 whole entry): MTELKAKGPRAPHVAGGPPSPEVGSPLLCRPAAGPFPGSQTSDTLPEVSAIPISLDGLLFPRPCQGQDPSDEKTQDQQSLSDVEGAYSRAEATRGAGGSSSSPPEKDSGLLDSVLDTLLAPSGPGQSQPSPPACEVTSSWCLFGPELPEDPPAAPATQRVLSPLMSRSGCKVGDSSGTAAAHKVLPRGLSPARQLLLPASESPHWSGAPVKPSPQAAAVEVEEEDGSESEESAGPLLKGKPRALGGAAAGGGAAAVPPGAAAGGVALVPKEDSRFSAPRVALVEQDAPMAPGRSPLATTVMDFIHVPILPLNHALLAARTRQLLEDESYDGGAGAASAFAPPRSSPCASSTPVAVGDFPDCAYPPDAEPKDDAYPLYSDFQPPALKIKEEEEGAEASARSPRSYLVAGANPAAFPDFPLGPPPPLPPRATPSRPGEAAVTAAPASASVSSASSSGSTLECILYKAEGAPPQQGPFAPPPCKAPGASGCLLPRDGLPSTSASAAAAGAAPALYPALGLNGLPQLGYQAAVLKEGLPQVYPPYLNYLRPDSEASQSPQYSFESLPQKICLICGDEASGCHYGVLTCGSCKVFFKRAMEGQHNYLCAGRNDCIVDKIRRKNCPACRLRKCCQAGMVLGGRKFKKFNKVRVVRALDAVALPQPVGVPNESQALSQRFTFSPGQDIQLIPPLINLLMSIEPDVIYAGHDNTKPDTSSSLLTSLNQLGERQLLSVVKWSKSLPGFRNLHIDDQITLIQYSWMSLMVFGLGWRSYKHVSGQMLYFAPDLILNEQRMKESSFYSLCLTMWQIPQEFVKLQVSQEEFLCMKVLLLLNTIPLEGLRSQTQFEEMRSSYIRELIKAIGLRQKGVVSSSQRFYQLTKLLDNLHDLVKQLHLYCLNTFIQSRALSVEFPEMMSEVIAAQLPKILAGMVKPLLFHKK

[8] = molecular target: Sodium-dependent dopamine transporter (Homo sapiens, UniProt Q01959)
Chain of Sodium-dependent dopamine transporter (Q01959 whole entry): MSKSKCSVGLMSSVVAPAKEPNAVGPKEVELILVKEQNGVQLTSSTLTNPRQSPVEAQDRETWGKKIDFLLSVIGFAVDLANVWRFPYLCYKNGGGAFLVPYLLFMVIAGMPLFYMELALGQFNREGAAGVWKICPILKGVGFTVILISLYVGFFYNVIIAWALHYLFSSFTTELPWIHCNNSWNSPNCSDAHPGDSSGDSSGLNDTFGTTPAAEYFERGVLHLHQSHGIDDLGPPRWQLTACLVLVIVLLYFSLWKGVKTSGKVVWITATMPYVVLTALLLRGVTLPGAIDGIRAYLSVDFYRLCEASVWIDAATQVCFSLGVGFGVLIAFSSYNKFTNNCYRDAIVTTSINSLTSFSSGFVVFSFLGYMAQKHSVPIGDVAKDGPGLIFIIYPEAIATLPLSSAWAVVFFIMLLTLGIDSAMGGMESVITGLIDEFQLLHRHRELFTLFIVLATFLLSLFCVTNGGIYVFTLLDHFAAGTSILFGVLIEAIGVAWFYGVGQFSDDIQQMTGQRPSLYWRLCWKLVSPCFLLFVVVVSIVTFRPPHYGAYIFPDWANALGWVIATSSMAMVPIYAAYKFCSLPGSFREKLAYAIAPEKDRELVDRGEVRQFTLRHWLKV

[9] = molecular target: T5, Alpha-2B adrenergic receptor (Homo sapiens, UniProt P18089)
T5 sequence (P18089 whole entry): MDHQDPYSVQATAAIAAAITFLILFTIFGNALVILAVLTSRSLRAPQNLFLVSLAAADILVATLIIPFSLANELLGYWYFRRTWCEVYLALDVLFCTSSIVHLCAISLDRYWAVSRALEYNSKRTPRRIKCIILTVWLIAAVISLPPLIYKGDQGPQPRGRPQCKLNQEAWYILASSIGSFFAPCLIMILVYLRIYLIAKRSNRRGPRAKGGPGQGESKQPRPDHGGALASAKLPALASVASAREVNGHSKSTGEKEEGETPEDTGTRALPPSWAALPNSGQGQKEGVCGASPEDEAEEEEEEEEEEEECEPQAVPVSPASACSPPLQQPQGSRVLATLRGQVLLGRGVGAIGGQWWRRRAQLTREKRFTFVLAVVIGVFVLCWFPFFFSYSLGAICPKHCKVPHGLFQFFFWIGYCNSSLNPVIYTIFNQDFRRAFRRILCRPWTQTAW
Further: assay procedure not described here.

Row | Compound | AC50 [1] [µM] | AC50 [2] [µM] | AC50 [3] [µM] | AC50 [4] [µM] | AC50 [5] [µM] | AC50 [6] [µM] | AC50 [7] [µM] | AC50 [8] [µM] | AC50 [9] [µM]
1 | COc1ccccc1N1CCN(CCCNc2cc(=O)n(C)c(=O)n2C)CC1 | > 30 | > 30 | > 30 | > 30 | > 30 | > 30 | > 30 | > 30 | –
2 | C#C[C@]1(O)CC[C@H]2[C@@H]3CCC4=Cc5oncc5C[C@]4(C)[C@H]3CC[C@@]21C [DANAZOL] | > 30 | > 10 | – | > 10 | > 10 | – | – | > 10 | –
3 | C[C@](N)(Cc1ccc(O)c(O)c1)C(=O)O [METHYLDOPA] | > 30 | > 10 | – | > 10 | > 30 | > 30 | > 30 | > 10 | –
4 | CN1C(=O)OC(C)(C)C1=O [TRIMETHADIONE] | > 10 | > 10 | – | > 10 | > 10 | > 30 | > 10 | > 10 | –
5 | CC(C)Cn1cnc2c(N)nc3ccccc3c21 [IMIQUIMOD] | > 30 | > 10 | – | > 10 | > 10 | > 30 | > 10 | > 30 | –
6 | CCN(CC)C(=O)N[C@H]1C[C@@H]2c3cccc4[nH]cc(c34)C[C@H]2N(C)C1 [TERGURIDE] | > 30 | > 30 | > 30 | > 30 | 15 | > 30 | > 30 | > 30 | –
7 | Nc1nc(N)nc(-c2cc(Cl)ccc2Cl)n1 [IRSOGLADINE] | > 30 | > 30 | – | > 30 | > 30 | – | > 30 | > 30 | –
8 | CC(=O)O[C@H]1C[C@@H]2CC[C@@H]3[C@H](CC[C@@]4(C)[C@H]3C[C@H]([N+]3(C)CCCCC3)[C@@H]4OC(C)=O)[C@@]2(C)C[C@@H]1N1CCCCC1 [VECURONIUM] | > 30 | > 30 | – | > 30 | > 30 | > 30 | > 30 | > 30 | –
9 | CNS(=O)(=O)Cc1ccc2[nH]cc(CCN(C)C)c2c1 | > 30 | > 30 | – | > 30 | > 30 | – | – | > 10 | –
10 | CC=CC(=O)N(CC)c1ccccc1C | > 10 | > 10 | – | > 10 | > 10 | > 30 | > 10 | > 10 | –
11 | CCCN(CCC)C(=O)C(CCC(=O)O)NC(=O)c1ccccc1 (stereo not drawn) [PROGLUMIDE] | > 30 | > 30 | – | > 30 | > 30 | > 30 | > 30 | > 30 | –
12 | CNC(C)CCC=C(C)C (stereo not drawn) [ISOMETHEPTENE] | > 30 | > 30 | – | > 30 | – | – | > 30 | > 30 | –
13 | CC[C@@H]1C(=O)OC[C@@H]1Cc1cncn1C [PILOCARPINE] | > 30 | > 30 | – | > 30 | > 10 | > 30 | – | > 30 | > 10
14 | CO/N=C(\C(=O)N[C@@H]1C(=O)N2C(C(=O)O)=C(CSc3nnnn3C)CS[C@H]12)c1csc(N)n1 [CEFMENOXIME] | > 30 | > 30 | – | > 30 | > 30 | – | 1.8 | > 30 | –
15 | Cc1ccc(S(=O)(=O)NC(=O)NN2CC3CCCC3C2)cc1 (stereo not drawn) [GLICLAZIDE] | > 10 | > 10 | – | > 10 | > 30 | > 30 | > 10 | > 10 | –
16 | O=C(O)C[C@H](O)C[C@H](O)/C=C/c1c(C2CC2)nc2ccccc2c1-c1ccc(F)cc1 [PITAVASTATIN] | > 30 | > 30 | > 30 | > 10 | > 10 | > 30 | > 30 | > 30 | –
17 | CN1CCN(CC/C=C2/c3ccccc3Sc3ccc(S(=O)(=O)N(C)C)cc32)CC1 [THIOTHIXENE] | > 30 | > 30 | > 10 | 25.3 | > 10 | 1.6 | – | 6.26 | –
18 | CCOC(=O)OC(C)OC1=C(C(=O)Nc2ccccn2)N(C)S(=O)(=O)c2ccccc21 (stereo not drawn) [AMPIROXICAM] | > 30 | > 30 | – | > 30 | > 30 | > 30 | > 30 | > 30 | –
19 | C[C@]12CC[C@H]3[C@@H](CCC4=CC(=O)CC[C@@]43C)[C@@H]1CC[C@@H]2O [TESTOSTERONE] | > 10 | > 10 | – | > 10 | > 30 | > 30 | – | > 10 | –
20 | Cn1c(=O)c2c(ncn2CC2OCCO2)n(C)c1=O [DOXOFYLLINE] | > 30 | > 30 | – | > 30 | > 30 | > 30 | > 30 | > 30 | –
21 | O=C(NCCN1CCOCC1)c1ccc(Cl)cc1 [MOCLOBEMIDE] | > 10 | > 10 | – | > 10 | > 10 | > 30 | > 10 | > 10 | –
22 | NCC[C@H](O)C(=O)N[C@@H]1C[C@H](N)[C@@H](O[C@H]2O[C@H](CN)[C@@H](O)[C@H](O)[C@H]2O)[C@H](O)[C@H]1O[C@H]1O[C@H](CO)[C@@H](O)[C@H](N)[C@H]1O [AMIKACIN] | > 10 | > 10 | – | > 10 | > 10 | > 30 | > 10 | > 10 | –
